Laboratory results taken from patent US5994363A (priority 1998, dated 1999).
Several values for one entry are separate records, joined by “and”; a condition that tells them apart may be missing. Equal values may be shown once. Where a name gives a salt, the structure may show the parent alone.

Assays:
[1] = 100-400 μg/kg, up to four days, primates; cited from earlier work
[2] = Take-home sexual intercourse success rate (Example 5, Phase III); type: in vivo, human
Source text: (§1) During the five-week, home-use phase, subjects were to attempt coitus at least once each week after taking a single APO tablet. After each attempt, the subject and their partner completed a Sexual Function questionnaire (See FIGS. 15 and 16) which was later evaluated and used for final statistical analysis.
(§2) For the third phase, subjects had recorded at baseline, their satisfaction,erection, number of attempts, and successful intercourse on a VAS scale (see Tables Xa-Xc, above). Evaluateable subjects first recorded a success rate, then completed VAS for erection results and satisfaction with intercourse following take-home treatment. The success rates, as shown in Tables XVa-XVb, below, were calculated for milligrams of APO as well as for micrograms per kilogram of the patient's body weight doses (males). There were four criteria for recording a success in the take-home phase. […] Several evaluations of the data were made including the male and female responses to treatments via questionnaires (see FIGS. 15 and 16).

[3] = Side effects after subcutaneous, sublingual and oral apomorphine HCl in dog (Example 3)
[4] = Duration of vomiting and retching in dog after daily subcutaneous apomorphine HCl (Example 1); type: in vivo
[5] = single bolus subcutaneous injection, mammals; cited from earlier work
[6] = Number of dogs acclimatized to retching/vomiting; blood pressure and heart rate (Example 2); type: in vivo, dog
Protocol: This study provides a different view of data recorded in Example 1.
Observations were made at three different dosage levels, 0.04, 0.1 and 0.4 mg/kg/day. No dose escalation was attempted in this study. A group of five dogs was used for tests at each dosage level. The number of dogs in each dosage group with a retching or vomiting episode in each post-administration time period was recorded for daily administration over about 180 days. Ten day averages were calculated and plotted (see FIGS. 3 through 6).
The blood pressure and heart rates of an untreated group of dogs was evaluated for comparison purposes.

[7] = mouse, cited from earlier work
[8] = Take-home intercourse satisfaction, VAS questionnaire question 3 (Example 5, Phase III); type: in vivo, human; conditions: for Satisfaction Percent Change from Baseline, LSMEAN / Satisfaction Percent Change from Baseline, MEAN: MALE
Source text: as §1, §2
(§3) Tables XVIIa--XVIId, below, show the statistical results of phase III with respect to Rigiscan™ results (a and b) and intercourse satisfaction (c and d) based on question 1 and question 3, respectively, from the completed questionnaires (see FIGS. 15 and 16). […] The maximum improvement from baseline were 56% in males and 59% in females. The mean improvement were 29% in males and 34% in females. […] The mean improvements were 34% in females and 45% in males.

[9] = Penile erectile response ([…] score) with erotic and neutral videos (Example 5); type: in vivo, human; conditions: for Total RIGISCAN Score, Erotic 1: N = 31-36, ** significantly higher than placebo 1 and 2
Protocol: Each of the selected subjects' penile erectile response (measured with the […]™ ambulatory tumescence monitor) was evaluated using the scoring system as set out in Table IX, below.
The combining of the scores of A, B, C, and D from Table IX yields a total score for each subject. A total score of less than 16 for any individual subject indicates erectile dysfunction.
Patients not experiencing nausea or any other significant adverse effects within fifteen minutes post-dosing with APO or placebo viewed segments of standardized erotic videos to provide sexual stimulation. […] The duration of the testing session for each dose level lasted between 45 and 60 minutes.
This aim was accomplished during the first two phases of the study in which subjects were attached to the […]™ monitor. Subjects were initially treated with placebo, followed by APO 4, 6, and 8 mg. tablets with a placebo tablet randomly interspersed in the treatment.

[10] = Take-home erection results, VAS questionnaire question 1 (Example 5, Phase III); type: in vivo, human; conditions: for Erection Results (Maximum) Percent Change from Baseline, LSMEAN: all sites; for Erection Results (Maximum) Percent Change from Baseline, MEAN: all doses, site #1, #2, #3, #4, listed as APO
Source text: as §1, §2, §3

With `CN1CCc2cccc3c2[C@H]1Cc1ccc(O)c(O)c1-3` [apomorphine HCl] as the molecule, how does the “adverse effects of multiple doses” value [1] read?
The value was “without major adverse effects”.

And the “Sexual Intercourse Success Rate” value ([2]; Female, 6 mg, listed as APO)?
Its value is 73.3% and 73%.

What about the “Sexual Intercourse Success Rate” value ([2]; Female, 35-50 μg/kg) of the same molecule?
The value was 60.0%.

What about the “Sexual Intercourse Success Rate” value ([2]; Female, 50-74 μg/kg, listed as APO) of the same molecule?
Its value is 82%.

What about the “Sexual Intercourse Success Rate” value ([2]; Female, Overall) of the same molecule?
Its value is 70.0%.

What about the “Sexual Intercourse Success Rate” value ([2]; Male, 6 mg, listed as APO) of the same molecule?
Its value is 73.3% and 73%.

And the “Sexual Intercourse Success Rate” value ([2]; Male, 35-50 μg/kg)?
Its value is 80.0%.

What about the “Sexual Intercourse Success Rate” value ([2]; Male, 50-74 μg/kg, listed as APO) of the same molecule?
Its value is 73%.

What about the “Sexual Intercourse Success Rate” value ([2]; Male, Overall) of the same molecule?
The value was 70.0%.

And the overall success rate ([2]; whole study, baseline rate 28%, listed as APO)?
The overall success rate was 70% and 72%.

What about the “Average Severity” value ([3]; oral 0.2 mg/kg) of the same molecule?
The value was 0.00%.

And the “number of animals having nausea/vomiting” value ([3]; oral 0.2 mg/kg, 8 min, 4 animals per group)?
The value was 0.

What about the “number of animals having nausea/vomiting” value ([3]; oral 0.2 mg/kg, 15 min) of the same molecule?
The value was 0.

And the “number of animals having nausea/vomiting” value ([3]; oral 0.2 mg/kg, 30 min)?
Its value is 0.

What about the “Average Severity” value ([3]; subcutaneous 0.04 mg/kg) of the same molecule?
Its value is 150.00%.

And the “number of animals having nausea/vomiting” value ([3]; subcutaneous 0.04 mg/kg, 8 min, 4 animals per group)?
The value was 4.

What about the “number of animals having nausea/vomiting” value ([3]; subcutaneous 0.04 mg/kg, 15 min) of the same molecule?
Its value is 2.

And the “number of animals having nausea/vomiting” value ([3]; subcutaneous 0.04 mg/kg, 30 min)?
The value was 0.

And the “Average Severity” value ([3]; sublingual 0.2 mg/kg)?
Its value is 50.00%.

What about the “number of animals having nausea/vomiting” value ([3]; sublingual 0.2 mg/kg, 8 min, 4 animals per group) of the same molecule?
Its value is 0.

And the “number of animals having nausea/vomiting” value ([3]; sublingual 0.2 mg/kg, 15 min)?
Its value is 1.

And the “number of animals having nausea/vomiting” value ([3]; sublingual 0.2 mg/kg, 30 min)?
The value was 1.

What about the “time to acclimatization (retching and vomiting)” value ([4]; 0.4 mg/kg/day s.c.) of the same molecule?
The value was “about 10 days”.

And the “effect of escalation on vomiting/retching” value ([4]; 0.8 mg/kg/day after 21 days at 0.4 mg/kg/day)?
Its value is “no evidence of an increase in vomiting/retching”.

And the “wash out period required to establish homeostasis” value ([4]; after CNS supersensitivity)?
The value was 4 to 6 weeks.

What about the “effect of increasing dose by 100% of the acclimation dose on duration” value ([4]; after acclimation established) of the same molecule?
Its value is “no corresponding increase in the duration of retching and vomiting”.

What about the movement disorders ([4]; dose reduced from 1.2 to 0.8 mg/kg/day) of the same molecule?
The movement disorders was “movement disorders were again observed”.

And the “average duration of retching/vomiting period” value ([4]; following daily administration)?
Its value is “about 5 minutes”.

And the “average duration of retching/vomiting period” value ([4]; following initial dose)?
Its value is “about 30 minutes”.

What about the “time to acclimatization (retching and vomiting)” value ([4]; lower doses (0.05 mg/kg start), s.c. daily) of the same molecule?
Its value is at most 3 days.

What about the “effect of challenge on duration of vomiting” value ([4]; lower doses, after 12 days, dose 100% greater than acclimatized dose) of the same molecule?
The value was “Only a small increase in the duration of vomiting”.

And the tolerated dose [5]?
The tolerated dose was “up to 13 mg/kg”.

What about the “daily treatment needed for 80 percent effective acclimation” value ([6]; 0.4 mg/kg/day s.c.) of the same molecule?
Its value is “about 3 months”.

What about the “net changes in blood pressure” value ([6]; after 5 months chronic treatment, vs untreated controls) of the same molecule?
Its value is “not significantly different from the controls”.

And the “heart rate after administration” value ([6]; after 5 months chronic treatment, 0.04, 0.1, 0.4 mg/kg/day)?
Its value is “tachycardia sometimes occurs”.

What about the bradycardia ([6]; initially, lost by acclimation) of the same molecule?
The bradycardia was “badycardia was reported in some subjects”.

And the “lethality at or above about 13 mg/kg” value ([7]; single bolus subcutaneous)?
Its value is “reported lethal”.

And the LD50 [7]?
Its LD50 is over 50 mg/kg.

And the “Satisfaction (Maximum) Change from Baseline, LSMEAN” value ([8]; FEMALE, 4 mg, all sites)?
The value was 41.86.

And the “Satisfaction (Maximum) Change from Baseline, LSMEAN” value ([8]; FEMALE, 6 mg, all sites)?
The value was 40.60.

What about the “Satisfaction (Maximum) Change from Baseline, LSMEAN” value ([8]; FEMALE, 8 mg, all sites) of the same molecule?
Its value is 62.33.

And the “Satisfaction (Maximum) Change from Baseline, MEAN” value ([8]; FEMALE, all doses, site #1, #2, #3, #4, listed as APO)?
The value was 57.00 and 37.75 and 33.29.

What about the “Satisfaction Percent Change from Baseline, LSMEAN” value ([8]; 4 mg, all sites) of the same molecule?
The value was 49.14%.

What about the “Satisfaction Percent Change from Baseline, LSMEAN” value ([8]; 6 mg, all sites) of the same molecule?
Its value is 51.47%.

What about the “Satisfaction Percent Change from Baseline, MEAN” value ([8]; 6 mg, all sites, site #1, #2, #3, #4, listed as APO) of the same molecule?
Its value is 51.47% and 40.60% and 59.50% and 54.50% and 58.00%.

What about the “Satisfaction Percent Change from Baseline, LSMEAN” value ([8]; 8 mg, all sites) of the same molecule?
The value was 56.57%.

What about the “Satisfaction Percent Change from Baseline, MEAN” value ([8]; all doses, b893 site #1, b897 #2, b901 #3, b905 #4, listed as APO) of the same molecule?
The value was 58.00% and 48.50% and 49.56% and 50.00%.

And the “VAS satisfaction, mean improvement” value ([8]; females)?
Its value is 34%.

What about the “VAS satisfaction, maximum improvement from baseline” value ([8]; females, 8 mg) of the same molecule?
Its value is 62%.

What about the “VAS satisfaction, mean improvement” value ([8]; males) of the same molecule?
Its value is 45%.

And the “VAS satisfaction, maximum improvement from baseline” value ([8]; males, 8 mg)?
The value was 57%.

And the “RIGISCAN score, erotic #1, comparison in words” value ([9]; 4 mg, Site #1)?
The value was “slightly lower”.

And the “Penile Measurements (Maximum Increases), LSMEAN, NEUTRAL” value ([9]; 4 mg, b698 all sites, b704 site #1, b710 #2, b716 #3, b722 #4, listed as APO)?
The value was 8.70.

And the “Total RIGISCAN Score, Erotic 1” value ([9]; 6 mg)?
Its value is 17.09 ± 1.64.

And the “Penile Measurements (Maximum Increases), MEAN, NEUTRAL” value ([9]; 6 mg, b699 all sites, b705 site #1, b711 #2, b717 #3, b723 #4, listed as APO)?
The value was 9.60.

And the “Total RIGISCAN Score, Erotic 1” value ([9]; 8 mg)?
The value was 19.84 ± 1.61.

What about the “Total RIGISCAN Score, Neutral” value ([9]; 8 mg, N = 41-48, **) of the same molecule?
Its value is 11.95 ± 1.37.

And the “Penile Measurements (Maximum increase), Mean, EROTIC #1” value ([9]; 8 mg, all sites, site #1, #2, #4, listed as APO)?
The value was 19.84 and 15.60 and 25.00.

What about the “RIGISCAN scores, treatment effect vs second placebo in words” value ([9]; 4, 6, and 8 mg) of the same molecule?
The value was “most of the treatment effects were significant to highly significant compared to the second placebo”.

What about the “RIGISCAN scores, treatment effect in words” value ([9]; 4, 6, and 8 mg vs initial placebo) of the same molecule?
Its value is “significant to highly significant”.

What about the “RIGISCAN scores for penile increases in words” value ([9]; active doses, each of four sites, neutral and erotic sequences) of the same molecule?
Its value is “improved significantly”.

And the “RIGISCAN reading, effective in causing erections” value ([9]; all doses, erotic stimulation)?
Its value is “greater than or equal to 15”.

What about the “Erection Results (Maximum) Percent Change from Baseline, LSMEAN” value ([10]; FEMALE, 4 mg) of the same molecule?
Its value is 33.57%.

What about the “Erection Results (Maximum) Percent Change from Baseline, LSMEAN” value ([10]; FEMALE, 6 mg) of the same molecule?
Its value is 45.00%.

What about the “Erection Results (Maximum) Percent Change from Baseline, LSMEAN” value ([10]; FEMALE, 8 mg) of the same molecule?
Its value is 59.00%.

And the “Erection Results (Maximum) Percent Change from Baseline, MEAN” value ([10]; FEMALE)?
The value was 52.56% and 41.25% and 46.50% and 36.29%.

And the “Erection Results (Maximum) Percent Change from Baseline, LSMEAN” value ([10]; MALE, 4 mg)?
Its value is 55.71%.

And the “Erection Results (Maximum) Percent Change from Baseline, LSMEAN” value ([10]; MALE, 6 mg)?
The value was 42.80%.

And the “Erection Results (Maximum) Percent Change from Baseline, LSMEAN” value ([10]; MALE, 8 mg)?
The value was 31.86%.

What about the “Erection Results (Maximum) Percent Change from Baseline, MEAN” value ([10]; MALE) of the same molecule?
The value was 52.22% and 57.00% and 36.22% and 33.00%.

What about the “erection rigidity, mean improvement” value ([10]; females) of the same molecule?
The value was 34%.

What about the “erection rigidity, maximum improvement from baseline” value ([10]; females (best at 8 mg)) of the same molecule?
The value was 59%.

What about the “erection rigidity, mean improvement” value ([10]; males) of the same molecule?
The value was 29%.

What about the “erection rigidity, maximum improvement from baseline” value ([10]; males (best at 4 mg)) of the same molecule?
Its value is 56%.
